What is called viability is a read-out of living cells in per cent, often relative to untreated cells.

Consider 80 compounds from PMC12040169 (PLOS Biology, 2025).

The nature of the series: in vitro. The conditions noted are these: human, hela cells, % viability.

In the case of `CN(C)CCNC(=O)c1cccc(-c2cncc(Nc3cccc(Cl)c3)n2)c1` [CBK065229], the viability at 28.5 h, 10 µM turned out to be 104%.

For the compound `O=S(=O)(Nc1nnn[nH]1)c1ccccc1Br` [CBK062386], the viability at 28.5 h, 10 µM turned out to be 96.3%.

Consider `COc1ccc(OCCNC(=O)c2cc(Br)cnc2N(C)C(C)=O)cc1` [CBK076467], for which the viability at 28.5 h, 10 µM was found to be 104%.

On to `O=C(CSc1ccccc1)Nc1cccc(Oc2ccc3c(c2)C(=O)NC3=O)c1` [CBK266500], for which the viability at 28.5 h, 10 µM stood at 113%.

As for `Cc1ccc(C(=O)Nc2ccc3c(c2)OCO3)c(N2CCOCC2)n1` [CBK076377], the viability at 28.5 h, 10 µM turned out to be 92.9%.

Consider `CCOc1ccccc1NC(C)CC(=O)O` (centres unmarked) [CBK058826], for which the viability at 28.5 h, 10 µM is 82.8%.

For `Cc1ccc(S(=O)(=O)N(CC(=O)O)c2ccccc2C)cc1` [CBK262423], the viability at 28.5 h, 10 µM stood at 101%.

Take `CCCC(=O)NC(c1ccc(OC)cc1)c1cc(Cl)c2cccnc2c1O` (centres unmarked) [CBK293944]: the viability at 28.5 h, 10 µM was determined as 87.4%.

As for `CCOc1cc(NC2CCN(C(=O)C3(CC(C)C)CCC3)CC2)ncn1` [CBK304136], the viability at 28.5 h, 10 µM was 105%.

`NCCNCCCCOc1ccc(Cl)c(Cl)c1` [CBK265059]: the viability at 28.5 h, 10 µM worked out at 109%.

As to `CC(C)Nc1cncc(OCc2cccnc2)n1` [CBK115879], the viability at 28.5 h, 10 µM came out at 102%.

For the compound `O=C(NCc1ccc(C(F)(F)F)cc1)[C@@H]1Cc2[nH]cnc2CN1C1CCOCC1` [CBK288981], the viability at 28.5 h, 10 µM is 103%.

With `Cc1ccccc1C(NC(=O)C1CCN(S(=O)(=O)C(C)C)CC1)c1ccccn1` (centres unmarked) [CBK059711], the viability at 28.5 h, 10 µM stood at 104%.

As for `Cc1c(S(=O)(=O)Nc2ccc3nsnc3c2)cnn1-c1ccccc1` [CBK062229], the viability at 28.5 h, 10 µM was 87.6%.

`CCc1c(C(=O)NCc2cc(C3CC3)[nH]n2)[nH]c2ccc(F)cc12` [CBK282501]: the viability at 28.5 h, 10 µM worked out at 76.3%.

For the compound `Cc1nn(CC(=O)NC2CCC2)c(=O)c2cc3sccc3n12` [CBK284110], the viability at 28.5 h, 10 µM was found to be 108%.

Regarding `Cc1ccc(S(=O)(=O)Nc2c(C(=O)N3CCN(C)CC3)[nH]c3ccccc23)cc1[N+](=O)[O-]` [CBK050060], the viability at 28.5 h, 10 µM is 90.1%.

Turning to `COc1ccc(-c2c[nH]c([C@@H]3COCCN3Cc3ccc(C(=O)O)cc3)n2)cc1` [CBK289305], the viability at 28.5 h, 10 µM is 84.1%.

On to `CCOC(=O)c1cnn2c(O)cc(CN(CC(C)(C)O)C(C)C)nc12` [CBK306133], for which the viability at 28.5 h, 10 µM worked out at 93.6%.

In the case of `O=C(NCc1ccco1)c1cc(Br)cnc1N1CCOCC1` [CBK076268], the viability at 28.5 h, 10 µM was 94.6%.

For `CC(C)Nc1cc(OCc2ccc(F)cc2)ncn1` [CBK115654], the viability at 28.5 h, 10 µM turned out to be 103%.

With `CC(C)(C)OC(=O)N1CCCC1C1COc2ccccc2C1=O` (centres unmarked) [CBK281579], the viability at 28.5 h, 10 µM was determined as 89.2%.

Consider `O=C(c1ccccc1F)N1C[C@H](c2ccsc2)[C@H]2CN(Cc3ccsc3)CC[C@H]21` [CBK285661], for which the viability at 28.5 h, 10 µM stood at 107%.

Turning to `O=C1NC(=Nc2ccccn2)SC1Cc1ccc(Br)cc1` (centres unmarked) [CBK263109], the viability at 28.5 h, 10 µM is 82.3%.

On to `O=C1C(c2ccccc2)=C(c2ccccc2)C(c2ccc(C3=C(c4ccccc4)C(=O)C(c4ccccc4)=C3c3ccccc3)cc2)=C1c1ccccc1` [CBK261220], for which the viability at 28.5 h, 10 µM worked out at 87.4%.

In the case of `O=C(O)c1cccc(NC(=O)c2cc([N+](=O)[O-])cc([N+](=O)[O-])c2)c1` [CBK261555], the viability at 28.5 h, 10 µM (bulk resorufin, single well) was determined as 92.8%.

Turning to `CN1CCN(CC(=O)Nc2cc(C(F)(F)F)ccc2Cl)C(C)(C)C1` [CBK306363], the viability at 28.5 h, 10 µM is 85.8%.

Consider `Cc1ccc(C(=O)c2coc3ccc(O)cc23)cc1` [CBK115557], for which the viability at 28.5 h, 10 µM was 89.1%.

`CC(C)c1ccc(/C=C/C(=O)NCCN2CCOCC2)cc1` [CBK149631]: the viability at 28.5 h, 10 µM is 92.6%.

`Cn1cccc1C(=O)NCc1ccc(OC2CCNCC2)cc1` [CBK036360T]: the viability at 28.5 h, 10 µM was determined as 93%.

Take `COc1ncc(-c2nccnc2NCc2cccs2)c(OC)n1` [CBK037318]: the viability at 28.5 h, 10 µM amounted to 95.9%.

On to `CSCCCNC(=O)c1ccc2[nH]ccc2c1` [CBK149056], for which the viability at 28.5 h, 10 µM is 100%.

As to `CCN(Cc1ccccc1)C1CCN(Cc2cccc(OC)c2)CC1` [CBK264654G], the viability at 28.5 h, 10 µM was 99.2%.

Regarding `O=C(CSc1ccccn1)Nc1ccccc1-c1ccccc1` [CBK263553], the viability at 28.5 h, 10 µM was 90.6%.

`O=C(O)c1ccc(-c2ccc(/C=C3/NC(=O)N(c4ccc(Cl)cc4)C3=O)o2)cc1` [CBK077970]: the viability at 28.5 h, 10 µM worked out at 103%.

As for `CC(C)(C)SCCOC(=O)C1CC(=O)N(Cc2ccccn2)C1` (centres unmarked) [CBK303991], the viability at 28.5 h, 10 µM came to 90.8%.

Consider `NC(=O)C1CCN(c2ccc(-c3noc([C@@H]4CCCN4Cc4cccnc4)n3)cn2)CC1` [CBK288882], for which the viability at 28.5 h, 10 µM was 108%.

Turning to `Cn1nc(-c2ccc(S(=O)(=O)Nc3nnn[nH]3)s2)cc1C(F)(F)F` [CBK062390], the viability at 28.5 h, 10 µM stood at 94.4%.

As to `O=C(NCCSCc1ccco1)C1CCC1` [CBK057516], the viability at 28.5 h, 10 µM was found to be 119%.

Regarding `O=C(COc1ccc(C=C2C(=O)NC(=O)NC2=O)cc1)NCc1ccccc1` [CBK263736], for the setting “bulk resorufin, single well”, the viability at 28.5 h, 10 µM stood at 93.3%.

As to `O=C(O)CCCNS(=O)(=O)c1ccc([N+](=O)[O-])cc1` [CBK261317], the viability at 28.5 h, 10 µM was 93.1%.

For `CC(C)Cn1c(=O)[nH]c2ncc(-c3cccc4ccccc34)nc21` [CBK064194], the viability at 28.5 h, 10 µM was found to be 107%.

Consider `COc1ccc(Nc2ccc(-c3ccc4c(c3)OCO4)cn2)c(C)c1` [CBK036799], for which the viability at 28.5 h, 10 µM stood at 102%.

As for `CC1Cc2cc(-c3cn4ccccc4n3)ccc2N1S(C)(=O)=O` (centres unmarked) [CBK285194], the viability at 28.5 h, 10 µM is 94.3%.

With `CCOC(=O)Cn1nc(C)n2c(cc3sc(C)cc32)c1=O` [CBK284096], the viability at 28.5 h, 10 µM turned out to be 82.3%.

For `CCOc1ccc(Cl)cc1CNc1nnnn1CC` [CBK288128], the viability at 28.5 h, 10 µM was found to be 92.9%.

As to `CNC(=O)c1sc2ccccc2c1C1CN(Cc2cn(C)c3ccc(F)cc23)CCO1` (centres unmarked) [CBK285868], the viability at 28.5 h, 10 µM was 87.4%.

For `CN(C)CCN(C)C(=O)c1ccc(-c2ccccc2)nc1N(C)C` [CBK106070], the viability at 28.5 h, 10 µM was determined as 88.1%.

On to `COc1ccc(/C=C/C(=O)O)cc1S(=O)(=O)NCc1ccccc1` [CBK287252], for which the viability at 28.5 h, 10 µM came to 87.9%.

`COc1cccc2c1OC1(CCN(C(=O)C3CCC3)CC1)OC2` [CBK061168]: under “bulk resorufin, single well”, the viability at 28.5 h, 10 µM was 85.4%.

Turning to `Cc1nc2ncccn2c1-c1csc(Nc2ccc(S(N)(=O)=O)cc2)n1` [CBK263294B], the viability at 28.5 h, 10 µM amounted to 84.8%.

In the case of `Cc1cc(C(=O)Nc2cccc(-c3nc4cc(Cl)ccc4o3)c2C)ccc1[N+](=O)[O-]` [CBK262949], the viability at 28.5 h, 10 µM was found to be 91.8%.

Regarding `CCCC(=O)Nc1ccc(N2CCNCC2)c2ccccc12` [CBK024619T], the viability at 28.5 h, 10 µM is 88.4%.

For `COCCN(Cc1cnn(C)c1)Cc1cc(O)c2cc(C)ccc2n1` [CBK306723], the viability at 28.5 h, 10 µM is 86.1%.

Turning to `FC(F)(F)c1ccc(OCc2ccc(-c3ccccc3)cc2)nc1` [CBK115830], the viability at 28.5 h, 10 µM is 94.6%.

Consider `Cn1ccnc1C1(O)CC2CCC(C1)N2C(=O)c1ccc(F)cc1` (centres unmarked) [CBK284086], for which the viability at 28.5 h, 10 µM came to 98.4%.

As for `CS(=O)(=O)c1ccc(-c2cccc(COC3CCN(C(=O)Cc4ccc(Cl)cc4)CC3)c2)cc1` [CBK149504], the viability at 28.5 h, 10 µM was 110%.

With `O=C(c1ccc2ccccc2c1)C12CN3CN(CN(C3)C1)C2` [CBK009031], the viability at 28.5 h, 10 µM came to 89.1%.

Turning to `CCN1CC2(CCCN(Cc3cncn3C3CCCCC3)C2)CCC1=O` (centres unmarked) [CBK307223], the viability at 28.5 h, 10 µM was determined as 98.1%.

For the compound `O=c1nc(O)c(I)cn1C1OC(CO)C(O)C1O` (centres unmarked) [CBK015625], the viability at 28.5 h, 10 µM worked out at 82.3%.

For the compound `Cc1nc(COc2ccccc2)sc1C(=O)N1CCC(C(N)=O)CC1` [CBK202603], the viability at 28.5 h, 10 µM was determined as 103%.

Turning to `COc1nc(NCc2ccco2)nc(OC)n1` [CBK027479], the viability at 28.5 h, 10 µM was found to be 86.4%.

As to `COc1cc(CNC(=O)NC(=O)C2CCN(CCCc3ccc(Cl)c(Cl)c3)CC2)cc(OC)c1OC` [CBK034858], the viability at 28.5 h, 10 µM stood at 107%.

Regarding `O=C(O)c1ccc(Nc2nc3ccccc3nc2NS(=O)(=O)c2ccc(Cl)cc2)cc1` [CBK296072], the viability at 28.5 h, 10 µM turned out to be 98.5%.

With `NCCc1c[nH]c2ccc(OCc3ccccc3)cc12` [CBK260980C], the viability at 28.5 h, 10 µM (bulk resorufin, single well) amounted to 84.9%.

`Cc1nonc1-c1csc(CC(C)n2cc(Cl)cn2)n1` (centres unmarked) [CBK304704]: the viability at 28.5 h, 10 µM was determined as 92.2%.

Consider `COc1ccc2c(c1)CCCN2C(=O)CCn1ccc(C)n1` [CBK282217], for which the viability at 28.5 h, 10 µM was 104%.

With `CC(=O)OC(COc1ccc2ccccc2c1Br)Cn1cnc2ccccc21` (centres unmarked) [CBK266083], the viability at 28.5 h, 10 µM stood at 84.6%.

In the case of `Fc1ccc(Sc2nc3ccccc3nc2N2CCCC2)cc1` [CBK089543], the viability at 28.5 h, 10 µM was found to be 101%.

Regarding `O=C1CN(c2nc(-c3ccncc3)nc3ccccc23)CCN1` [CBK305805], the viability at 28.5 h, 10 µM turned out to be 91.9%.

With `O=C(c1cc(-c2ccccn2)n[nH]1)N1CCC(c2ccccc2)C1` (centres unmarked) [CBK281852], the viability at 28.5 h, 10 µM was determined as 91.9%.

Regarding `Cc1cc(/C=C2\C(=O)NC(=O)N(Cc3ccccc3Cl)C2=O)c(C)n1-c1ccc(C(=O)O)cc1` [CBK265602], the viability at 28.5 h, 10 µM (bulk resorufin, single well) turned out to be 84.9%.

Turning to `CC(C)(C)N1C(=O)c2ccc(C(=O)NNC(=O)C(C#N)C(=O)c3ccc4c(c3)C(=O)N(C(C)(C)C)C4=O)cc2C1=O` (centres unmarked) [CBK268652], the viability at 28.5 h, 10 µM came out at 90.3%.

On to `COc1ccc([C@@]23CCN(C(=O)c4ccc(Cl)c(Cl)c4)C[C@@H]2CN(C)C3)cc1OC` [CBK074308T], for which the viability at 28.5 h, 10 µM worked out at 99.4%.

On to `CCNc1cncc(-c2ccc(OC)cc2)n1` [CBK065370], for which the viability at 28.5 h, 10 µM is 92.1%.

Turning to `Cc1cc(NC(=O)CN2CCC(Cc3ccccc3)CC2)nc2c1c(=O)oc1ccccc12` [CBK291261], the viability at 28.5 h, 10 µM is 87.2%.

As to `O=C(CC(NC1CCCCC1)C(=O)O)Nc1cccc(Cl)c1` (centres unmarked) [CBK266916], the viability at 28.5 h, 10 µM was determined as 98.5%.

For the compound `COC(=O)c1cc(S(N)(=O)=O)c(C)o1` [CBK113185], the viability at 28.5 h, 10 µM was found to be 104%.

As to `COc1ccc2c(c1)CCC1CN(C)N=C21` (centres unmarked) [CBK010890], the viability at 28.5 h, 10 µM was determined as 100%.

Consider `Cc1ncncc1C(=O)NCC1(c2ccccc2F)CCCC1` [CBK281411], for which the viability at 28.5 h, 10 µM is 105%.
